Laboratory results as given in article PMC12582325 (Proceedings of the National Academy of Sciences of the …, 2025).
Where “and” joins values, the source holds several entries; their conditions need not be identical. Identical values can stand only once. Where a SMILES comes first, the peptide text is derived from it.

Key:
Fo.Ste2 [1] = assay type: cell-based, Fusarium oxysporum
Fo.Ste2 [2] = assay type: cell-based, Fusarium oxysporum; remark: listed apart in the source
[3] = tested on: F. oxysporum in tomato roots; assay: Quantification of fungal DNA in tomato roots (qPCR); details: 3 d after inoculation, washed roots; compared to the untreated infected roots; three biological replicates
[4] = tested on: F. oxysporum microconidia; assay: Germination of F. oxysporum microconidia; assay type: cell-based, Fusarium oxysporum f. sp. lycopersici 4287; set-up: Germination of F. oxysporum microconidia (data of Sup.Fig.10): unit not given here; details: for Germination of F. oxysporum microconidia (data of Sup.Fig.10): 400 μM pheromone, 13 h, at least 300 spores counted
Protocol: For F. oxysporum microconidia production, the strain was grown for 3 to 4 d in liquid potato dextrose broth (PDB) at 28 °C and 170 rpm. Germination media ([10]) was used for assessing the spore germination. RE was prepared by removing 2-wk-old tomato plants from vermiculite and washing the roots to remove any adhering substrates ([11]).
Supplementary Figure 10. Germination of F. oxysporum microconidia after 13 h of incubation in Germination Media at a cell density of […] microconidia/mL. The assay was performed with 400 μM of pheromone. All points represent the average of three biological replicates in which at least 300 spores were counted. Statistical significance was determined through one-way analysis of variance (ANOVA) with Dunnett’s multiple comparisons (✱p ≤ 0.05).

F. oxysporum germ tubes = details: gradient of 400 μM pheromone against the solvent (50% methanol); 13 h; water-agar; three biological replicates; Fig. 5A
Protocol: For the B. bassiana and F. oxysporum chemotropism assay and plant infection assays the pheromones were dissolved in 50% (v/v) MeOH to reach a concentration of 4,000 μM.
Fungal chemotropism was conducted as previously described ([11]). For each compound or combination of compounds tested, 300 hyphal tips were scored. All experiments were performed in three biological replicates.

Bb.Ste2 = assay type: cell-based, Beauveria bassiana
[5] = tested on: F. oxysporum on tomato roots; assay: Tomato root inoculation and fluorescence microscopy of infected roots; assay type: in vivo, Fusarium oxysporum / Solanum lycopersicum; details: exogenous addition of pheromone to microconidia; 3 d after inoculation; fluorescence microscopy
[6] = tested on: no_GPCR (negative control lacking a GPCR); assay type: cell-based, Saccharomyces cerevisiae
[7] = tested on: F. oxysporum infection of tomato plants; assay: Tomato plant mortality assay; assay type: in vivo, Fusarium oxysporum / Solanum lycopersicum; details: groups of 10 plants; 3.2 × 10^6 microconidia/mL supplemented with pheromone once at inoculation; 50 d; Kaplan-Meier, log-rank
Protocol: Tomato plant infection assays were performed as described ([61]) with F. oxysporum microconidia and treatment inoculation as described above. Plants were transferred to a growth and plant survival was recorded daily for 50 d. Plant death was diagnosed as a complete collapse of the stem, without any green parts left. The Kaplan–Meier test was used to assess statistical significance of differences in survival among groups using the log-rank test in GraphPad Prism. The infection experiment was conducted two times with 10 plants per condition.

Hj.Hpr2 = assay type: cell-based, Hypocrea jecorina
[8] = SC + added peptide, individual replicates (n=3), SC alone: 0, 0, 0

## CC(C)C[C@H](NC(=O)[C@H](CS)NC(=O)[C@@H](N)Cc1c[nH]c2ccccc12)C(=O)N[C@@H](Cc1c[nH]c2ccccc12)C(=O)N[C@@H](C)C(=O)NCC(=O)N[C@@H](CCC(N)=O)C(=O)N1CCC[C@H]1C(=O)N[C@@H](CS)C(=O)N[C@@H](Cc1c[nH]c2ccccc12)C(=O)O [A4] (H-WCLWAGQPCW-OH; N-terminus assumed)
Fo.Ste2 [1]
  Activation of Fo.Ste2 biosensor, in words: agonists for Fo.Ste2
  logEC50: -9.288
Fo.Ste2 [1]; read-out: half-maximal effective concentration (EC50)
  EC50: 0.516 nM
Fo.Ste2 [2]
  Fold decline in diploids containing Fo.Ste2: 0.2 fold
  Mean 2 (SC + peptide), Fo share of diploids: 0.1003
Fo.Ste2 [2]; n = 3
  Mean Diff, SC vs. + peptide: 0.3913
[3]
  Fungal biomass in inoculated tomato roots (qPCR of Fol4287 actin gene, 2^−ΔΔCt, normalized to tomato gapdh): significant reduction in fungal biomass
[4]; biological replicate 1 (first line)
  Germination of F. oxysporum microconidia (data of Sup.Fig.10): 15
[4]; biological replicate 2 (second line)
  Germination of F. oxysporum microconidia (data of Sup.Fig.10): 33,88
[4]; biological replicate 3 (third line)
  Germination of F. oxysporum microconidia (data of Sup.Fig.10): 6,9
[4]; Sup.Fig.10, Dunnett's multiple comparisons test, n = 3
  Mean Diff, Solvent vs. peptide: 25,18
[4]; Sup.Fig.10, Solvent control mean 43,77, mean of n = 3
  Mean 2 (peptide), germination: 18,59
[4]; exogenous addition of 400 μM peptide, 13 h in Germination Media, 3.2 x 106 microconidia/mL
  Effect on F. oxysporum microconidia germination, in words: significant reduction
Fg.Ste2; SC + added peptide, individual replicates (n=3), SC alone: 0.003, 0.004, 0.001
  barcode qPCR of diploids, Fg.Ste2 x Hj.Pheromone: 0
Fg.Ste2; SC + added peptide, individual replicates (n=3), SC alone: 0.005, 0.005, 0.013
  barcode qPCR of diploids, Fg.Ste2 x Fo.Pheromone: 0.012 and 0.1 and 0.242
Fg.Ste2; SC + added peptide, individual replicates (n=3), SC alone: 0.012, 0.001, 0.003
  barcode qPCR of diploids, Fg.Ste2 x no_Pheromone: 0.015 and 0.01 and 0.037
Fg.Ste2; SC + added peptide, individual replicates (n=3), SC alone: 0.012, 0.009, 0.006
  barcode qPCR of diploids, Fg.Ste2 x Bb.Pheromone: 0.004 and 0 (2×)
Fg.Ste2; SC + added peptide, individual replicates (n=3), SC alone: 0.206, 0.237, 0.235
  barcode qPCR of diploids, Fg.Ste2 x Fg.Pheromone: 0.014 and 0.192 and 0
Fg.Ste2; consortium in SC media, 10 μM external peptide
  Fold reduction of Fg.Ste2 and Fg.Pheromone interaction: 0.3 fold
Fg.Ste2; consortium in SC media, 10 μM external peptide, three biological replicates
  Fold increase in diploids containing Fg.Ste2: without increasing
F. oxysporum germ tubes
  Chemotropic response in F. oxysporum germ tubes: significant chemotropic response
Bb.Ste2
  Fold increase in formation of diploids containing Bb.Ste2: 8.7 fold
  Mean 2 (SC + peptide), Bb share of diploids: 0.4075
Bb.Ste2; n = 3
  Mean Diff, SC vs. + peptide: -0.3609
[5]
  Adhesion of F. oxysporum germ tubes among themselves or to tomato roots: increased adhesion
[6]; [8]
  barcode qPCR of diploids, no_GPCR x Fg.Pheromone: 0.035 and 0.012 and 0
  barcode qPCR of diploids, no_GPCR x Hj.Pheromone: 0.002 and 0 (2×)
[6]; SC + added peptide, individual replicates (n=3), SC alone: 0, 0, 0.004
  barcode qPCR of diploids, no_GPCR x Bb.Pheromone: 0.013 and 0.091 and 0
[6]; SC + added peptide, individual replicates (n=3), SC alone: 0, 0, 0.007
  barcode qPCR of diploids, no_GPCR x Fo.Pheromone: 0.014 and 0.039 and 0.054
[6]; SC + added peptide, individual replicates (n=3), SC alone: 0.001, 0.001, 0
  barcode qPCR of diploids, no_GPCR x no_Pheromone: 0.04 and 0 and 0.015
[6]; consortium in SC media, 10 μM external peptide, P = 0.013
  Fold increase in diploids of the negative control lacking a GPCR: 19 fold
[7]
  Tomato plant survival: no significant difference in plant survival
Hj.Hpr2
  Fold increase in formation of diploids containing Hj.Hpr2: 12.1 fold
  Mean 2 (SC + peptide), Hj share of diploids: 0.02456
  barcode qPCR of diploids, Hj.HPR2 x Bb.Pheromone: 0
  barcode qPCR of diploids, Hj.HPR2 x no_Pheromone: 0
Hj.Hpr2; n = 3
  Mean Diff, SC vs. + peptide: -0.02252
